According to US20170143701A1, “CARBOHYDRATE METABOLISM-AMELIORATING AGENT” (SUNTORY HOLDINGS LIMITED, priority 2014, published 2017):

Tests used:
NCI-H716 cells = assay: In vitro GLP-1 secretion-accelerating action: amount of active GLP-1 secreted (ELISA); format: cell-based; settings: 1 hour; for Significant difference (p < 0.05) vs control group, amount of active GLP-1 secreted: 10 mM, Student's t-test; for Amount of active GLP-1 secreted (relative value to control group as 100), average value: cyclic dipeptide 10 mM with 10 μM Sitagliptin phosphate, group with no cyclic dipeptide = 100
Procedure, shortened: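 NCI-H716 cells were cultured 48 h, then exposed 1 hour to cyclic dipeptide at 10 mM final with 10 μM sitagliptin in PBS(+). Active GLP-1 in the supernatant was measured by ELISA and expressed relative to the no-dipeptide group (=100).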

C57/BL6J mice = assay: In vivo plasma GLP-1 level-increasing action: plasma active GLP-1 level (ELISA) after oral administration; settings: 10 mg/kg oral; for Significant difference (p < 0.05) vs control group, plasma active GLP-1 level: 30 minutes, Student's t-test; for Plasma active GLP-1 level (relative value to control group as 100), average value: blood 30 minutes after, 0.5% CMC-Na group = 100
Procedure, shortened: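 Male C57BL/6J mice, habituated 1 week, deprived of food 5.5 h and water 2 h, then dosed orally with compound at 10 mg/kg in 0.5% CMC-Na. Vena cava blood taken 30 min later under anaesthesia, with heparin and sitagliptin added; plasma active GLP-1 by ELISA, relative to vehicle group set at 100.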

Compound | Significant difference (p < 0.05) vs control group, amount of active GLP-1 secreted (NCI-H716 cells; Table 4, Experiment 4) | Amount of active GLP-1 secreted (relative value to control group as 100), average value (NCI-H716 cells; Table 4, Experiment 4) | Significant difference (p < 0.05) vs control group, plasma active GLP-1 level (C57/BL6J mice; Table 7, Experiment 2) | Plasma active GLP-1 level (relative value to control group as 100), average value (C57/BL6J mice; Table 7, Experiment 2) | Significant difference (p < 0.05) vs control group, plasma active GLP-1 level (C57/BL6J mice; Table 6, Experiment 1) | Plasma active GLP-1 level (relative value to control group as 100), average value (C57/BL6J mice; Table 6, Experiment 1) | also measured
NC(N)=NCCCC1NC(=O)C(CC(=O)O)NC1=O (stereo not shown) [compound 207, cyclo-arginyl-aspartic acid] | Yes | 1255 | Yes | 266 | – | – | –
O=C1NC(Cc2c[nH]c3ccccc23)C(=O)NC1Cc1cnc[nH]1 (stereo not shown) [compound 60, Cyclo(Trp-His)] | – | – | – | – | No | 129 | Significant difference (p < 0.05) vs control group, amount of active GLP-1 secreted (NCI-H716 cells; Table 2, Experiment 2): Yes; Amount of active GLP-1 secreted (relative value to control group as 100), average value (NCI-H716 cells; Table 2, Experiment 2): 260
NC(=O)CC1NC(=O)CNC1=O (stereo not shown) [compound 215, cyclo-asparaginyl-glycine] | Yes | 611 | Yes | 305 | – | – | –
O=C(O)C[C@@H]1NC(=O)[C@H](CO)NC1=O [compound 193, cyclo-aspartyl-serine] | Yes | 509 | Yes | 266 | – | – | –
CC(C)[C@@H]1NC(=O)[C@H](CCCN=C(N)N)NC1=O [compound 194, cyclo-arginyl-valine] | Yes | 498 | Yes | 237 | – | – | –
C[C@@H]1NC(=O)[C@@H]2CCCN2C1=O [compound 187, cyclo-L-alanyl-proline] | Yes | 1186 | Yes | 217 | – | – | –
CSCC[C@@H]1NC(=O)[C@H](CCCNC(=N)N)NC1=O [compound 199, cyclo-methionyl-arginine] | Yes | 652 | Yes | 217 | – | – | –
CSCC[C@@H]1NC(=O)[C@@H]2CCCN2C1=O [compound 18, cyclo-methionyl-proline] | – | – | – | – | Yes | 138 | Significant difference (p < 0.05) vs control group, amount of active GLP-1 secreted (NCI-H716 cells; Table 1, Experiment 1): Yes; Amount of active GLP-1 secreted (relative value to control group as 100), average value (NCI-H716 cells; Table 1, Experiment 1): 338
CC[C@H](C)[C@@H]1NC(=O)[C@H](CCC(N)=O)NC1=O [compound 182, cyclo-glutaminyl-isoleucine] | Yes | 445 | Yes | 188 | – | – | –
CC(O)C1NC(=O)C(C(C)O)NC1=O (stereo not shown) [compound 164, cyclo-threonyl-threonine] | – | – | – | – | – | – | Significant difference (p < 0.05) vs control group, amount of active GLP-1 secreted (NCI-H716 cells; Table 3, Experiment 3): Yes; Amount of active GLP-1 secreted (relative value to control group as 100), average value (NCI-H716 cells; Table 3, Experiment 3): 162; Significant difference (p < 0.05) vs control group, plasma active GLP-1 level (C57/BL6J mice; Table 15, Experiment 10): Yes; Plasma active GLP-1 level (relative value to control group as 100), average value (C57/BL6J mice; Table 15, Experiment 10): 282
O=C(O)C[C@@H]1NC(=O)[C@@H]2CCCN2C1=O [compound 48, Cyclo(Asp-Pro)] | – | – | – | – | No | 110 | Significant difference (p < 0.05) vs control group, amount of active GLP-1 secreted (NCI-H716 cells; Table 2, Experiment 2): Yes; Amount of active GLP-1 secreted (relative value to control group as 100), average value (NCI-H716 cells; Table 2, Experiment 2): 199
C[C@@H]1NC(=O)[C@H](Cc2cnc[nH]2)NC1=O [compound 34, Cyclo(Ala-His)] | – | – | – | – | No | 100 | Significant difference (p < 0.05) vs control group, amount of active GLP-1 secreted (NCI-H716 cells; Table 1, Experiment 1): No; Amount of active GLP-1 secreted (relative value to control group as 100), average value (NCI-H716 cells; Table 1, Experiment 1): 211
CC1NC(=O)C(CO)NC1=O (stereo not shown) [compound 25, cyclo-alanyl-serine] | – | – | – | – | Yes | 158 | Significant difference (p < 0.05) vs control group, amount of active GLP-1 secreted (NCI-H716 cells; Table 1, Experiment 1): Yes; Amount of active GLP-1 secreted (relative value to control group as 100), average value (NCI-H716 cells; Table 1, Experiment 1): 257
